Measured values reported in the supplement of paper PMC10307832.

Experiments:
Test in all cases: relative viability (nuclei count vs DMSO), 5 days (fraction); higher = more cells survive
Elesclomol + Lapatinib = compound: CN(NC(=O)CC(=O)NN(C)C(=S)c1ccccc1)C(=S)c1ccccc1 [Elesclomol] + CS(=O)(=O)CCNCc1ccc(-c2ccc3ncnc(Nc4ccc(OCc5cccc(F)c5)c(Cl)c4)c3c2)o1 [Lapatinib] (partner 2 µM)
Method in brief: (§1)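 Medians of duplicate plates are given as relative viability. That measure is the nuclei count in treated wells divided by the count in vehicle wells. Counts were taken on 4× images of lung cancer cell lines in 1536-well plates, 5 days after pin-tool dosing the day after seeding with one drug alone or a fixed anchor-drug dose plus five library-drug doses (not always all listed) in √10 steps.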

Elesclomol + Pictilisib = compound: CN(NC(=O)CC(=O)NN(C)C(=S)c1ccccc1)C(=S)c1ccccc1 [Elesclomol] + CS(=O)(=O)N1CCN(Cc2cc3nc(-c4cccc5[nH]ncc45)nc(N4CCOCC4)c3s2)CC1 [Pictilisib] (partner 1 µM)
Method in brief: as §1

Elesclomol + Alpelisib = compound: CN(NC(=O)CC(=O)NN(C)C(=S)c1ccccc1)C(=S)c1ccccc1 [Elesclomol] + Cc1nc(NC(=O)N2CCC[C@H]2C(N)=O)sc1-c1ccnc(C(C)(C)C(F)(F)F)c1 [Alpelisib] (partner 2 µM)
Method in brief: as §1

Elesclomol + Dasatinib = compound: CN(NC(=O)CC(=O)NN(C)C(=S)c1ccccc1)C(=S)c1ccccc1 [Elesclomol] + Cc1nc(Nc2ncc(C(=O)Nc3c(C)cccc3Cl)s2)cc(N2CCN(CCO)CC2)n1 [Dasatinib] (partner 0.075 µM)
Method in brief: as §1

Elesclomol + Phenformin = compound: CN(NC(=O)CC(=O)NN(C)C(=S)c1ccccc1)C(=S)c1ccccc1 [Elesclomol] + N=C(N)NC(=N)NCCc1ccccc1 [Phenformin] (partner 250 µM)
Method in brief: as §1

Row | Cell Line | relative viability (Elesclomol + Lapatinib; first compound 0.003162 µM) | relative viability (Elesclomol + Lapatinib; first compound 0.01 µM) | relative viability (Elesclomol + Lapatinib; first compound 0.03162 µM) | relative viability (Elesclomol + Lapatinib; first compound 0.1 µM) | relative viability (Elesclomol + Pictilisib; first compound 0.003162 µM) | relative viability (Elesclomol + Pictilisib; first compound 0.01 µM) | relative viability (Elesclomol + Pictilisib; first compound 0.03162 µM) | relative viability (Elesclomol + Pictilisib; first compound 0.1 µM) | relative viability (Elesclomol + Alpelisib; first compound 0.003162 µM) | relative viability (Elesclomol + Alpelisib; first compound 0.01 µM) | relative viability (Elesclomol + Alpelisib; first compound 0.03162 µM) | relative viability (Elesclomol + Alpelisib; first compound 0.1 µM) | relative viability (Elesclomol + Dasatinib; first compound 0.003162 µM) | relative viability (Elesclomol + Dasatinib; first compound 0.01 µM) | relative viability (Elesclomol + Dasatinib; first compound 0.03162 µM) | relative viability (Elesclomol + Dasatinib; first compound 0.1 µM) | relative viability (Elesclomol + Phenformin; first compound 0.003162 µM) | relative viability (Elesclomol + Phenformin; first compound 0.01 µM) | relative viability (Elesclomol + Phenformin; first compound 0.03162 µM) | relative viability (Elesclomol + Phenformin; first compound 0.1 µM)
1 | NCI-H1666 | 0.556 | 0.326 | 0.229 | 0.153 | 0.359 | 0.267 | 0.243 | 0.195 | 0.765 | 0.232 | 0.277 | 0.116 | 0.9 | 0.585 | 0.412 | 0.378 | 0.566 | 0.554 | 0.494 | 0.476
2 | NCI-H1734 | 1.11 | 0.893 | 0.294 | 0.125 | 0.511 | 0.328 | 0.248 | 0.117 | 0.722 | 0.588 | 0.625 | 0.131 | 0.473 | 0.421 | 0.144 | 0.113 | 0.369 | 0.343 | 0.38 | 0.191
3 | NCI-H1755 | 1.05 | 0.939 | 0.887 | 0.236 | 0.481 | 0.225 | 0.409 | 0.202 | 0.931 | 0.9 | 0.909 | 0.24 | 0.446 | 0.357 | 0.433 | 0.214 | 0.624 | 0.466 | 0.605 | 0.57
4 | NCI-H1792 | 0.867 | 0.841 | 0.807 | 0.932 | 0.262 | 0.171 | 0.3 | 0.357 | 0.621 | 0.505 | 0.718 | 0.858 | 0.951 | 0.586 | 0.612 | 0.655 | 0.342 | – | 0.339 | 0.118
5 | NCI-H1793 | 0.657 | 0.613 | 0.651 | 0.112 | 0.273 | 0.307 | 0.335 | 0.178 | 0.759 | 0.654 | 0.768 | 0.164 | 0.358 | 0.268 | 0.373 | 0.136 | 0.302 | 0.35 | 0.335 | 0.247
6 | NCI-H1915 | 0.986 | – | 0.948 | 0.78 | 0.924 | – | 0.916 | 0.821 | 1.05 | – | 1.05 | 0.879 | 0.337 | – | 0.317 | 0.21 | 0.37 | – | 0.38 | 0.371
7 | NCI-H1944 | 0.829 | 0.714 | 0.846 | 0.688 | 0.381 | 0.29 | 0.318 | 0.328 | 0.887 | 0.736 | 0.881 | 0.825 | 0.223 | 0.205 | 0.229 | 0.155 | 0.216 | 0.169 | 0.212 | 0.201
8 | NCI-H1975 | 0.84 | 0.571 | 0.164 | 0.1 | 0.306 | 0.179 | 0.2 | 0.123 | 0.646 | 0.468 | 0.229 | 0.11 | 0.344 | 0.223 | 0.163 | 0.0599 | 0.43 | 0.329 | 0.388 | 0.281
9 | NCI-H1993 | 0.753 | 0.809 | 0.697 | 0.563 | 0.798 | 0.909 | 0.807 | 0.603 | 0.755 | 0.662 | 0.666 | 0.52 | 0.577 | 0.508 | 0.494 | 0.453 | 0.512 | 0.538 | 0.517 | 0.53
10 | NCI-H2009 | 0.841 | 0.178 | 0.136 | 0.107 | 0.797 | 0.225 | 0.122 | 0.0966 | 1.21 | 0.885 | 0.458 | 0.14 | 0.263 | 0.126 | 0.112 | 0.0747 | 0.344 | 0.239 | 0.243 | 0.107
11 | NCI-H2023 | 0.384 | 0.266 | 0.0556 | 0.0486 | 0.219 | 0.148 | 0.0682 | 0.0514 | 0.604 | 0.236 | 0.269 | 0.074 | 0.421 | 0.117 | 0.0528 | 0.0413 | 0.349 | 0.217 | 0.145 | 0.0642
12 | NCI-H2085 | 0.761 | 0.521 | 0.397 | 0.376 | 0.419 | 0.444 | 0.433 | 0.322 | 0.895 | 0.621 | 0.555 | 0.286 | 0.242 | 0.235 | 0.273 | 0.235 | 0.676 | 0.588 | 0.512 | 0.305
13 | NCI-H2087 | 0.895 | 0.519 | 0.58 | 0.569 | 0.879 | 0.559 | 0.491 | 0.495 | 1.2 | 0.701 | 0.526 | 0.566 | 0.815 | 0.502 | 0.41 | 0.152 | 0.376 | 0.343 | 0.284 | 0.181
14 | NCI-H2126 | 0.731 | 0.698 | 0.791 | 0.766 | 0.501 | 0.462 | 0.494 | 0.495 | 0.719 | 0.713 | 0.717 | 0.739 | 0.659 | 0.512 | 0.3 | 0.215 | 0.562 | 0.526 | 0.538 | 0.46
